{"source": "patent US20260285850A1", "about": "“SUBSTITUTED OXAZOLIDINONES AND IMIDAZOLINONES AS HERBICIDES” (FMC CORPORATION, priority 2023, published 2026)", "type_in_all_cases": "in vivo", "key": {"[1]": {"tested_on": "green foxtail (Setaria viridis)", "assay": "Test A preemergence soil spray, visual injury rating 0-100", "conditions": "10 days", "in_short": "(§1)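 Compounds formulated in a non-phytotoxic solvent with surfactant are sprayed onto soil of freshly planted loam-sand pots ahead of emergence, or onto emerged plants 2-10 cm tall. After a 10-day greenhouse period, each species is scored visually for injury against untreated controls.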"}, "[2]": {"tested_on": "corn (Zea mays)", "assay": "Test A preemergence soil spray, visual injury rating 0-100", "conditions": "10 days", "in_short": "as §1"}, "[3]": {"tested_on": "kochia (Bassia scoparia)", "assay": "Test A preemergence soil spray, visual injury rating 0-100", "conditions": "10 days", "in_short": "as §1"}, "[4]": {"tested_on": "ragweed (common ragweed, Ambrosia artemisiifolia)", "assay": "Test A preemergence soil spray, visual injury rating 0-100", "conditions": "10 days", "in_short": "as §1"}, "[5]": {"tested_on": "oat, wild (wild oat, Avena fatua)", "assay": "Test A preemergence soil spray, visual injury rating 0-100", "conditions": "10 days", "in_short": "as §1"}, "[6]": {"tested_on": "blackgrass (Alopecurus myosuroides)", "assay": "Test A preemergence soil spray, visual injury rating 0-100", "conditions": "10 days", "in_short": "as §1"}, "[7]": {"tested_on": "barnyardgrass (Echinochloa crus-galli)", "assay": "Test A preemergence soil spray, visual injury rating 0-100", "conditions": "10 days", "in_short": "as §1"}, "[8]": {"tested_on": "palmer (palmer amaranth, palmer pigweed, Amaranthus palmeri)", "assay": "Test A preemergence soil spray, visual injury rating 0-100", "conditions": "10 days", "in_short": "as §1"}, "[9]": {"tested_on": "wheat (Triticum aestivum)", "assay": "Test A preemergence soil spray, visual injury rating 0-100", "conditions": "10 days", "in_short": "as §1"}, "[10]": {"tested_on": "ryegrass, Italian (italian ryegrass, Lolium multiflorum)", "assay": "Test A preemergence soil spray, visual injury rating 0-100", "conditions": "10 days", "in_short": "as §1"}, "[11]": {"tested_on": "soybean (Glycine max)", "assay": "Test A preemergence soil spray, visual injury rating 0-100", "conditions": "10 days", "in_short": "as §1"}, "[12]": {"tested_on": "sedge, umbrella (small-flower umbrella sedge, Cyperus difformis)", "assay": "Test B flooded paddy test, visual plant response rating 0-100", "conditions": "250 g ai/ha, Flood, applied to paddy water, evaluated after 13 days", "in_short": "(§2)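 Paddy-water application: test compounds went directly into water flooded 3 cm above the soil surface, with plants at 2 leaves. After a 13-day greenhouse period, responses were judged by eye relative to controls; a dash marks an untested entry.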"}, "[13]": {"tested_on": "ducksalad (Heteranthera limosa)", "assay": "Test B flooded paddy test, visual plant response rating 0-100", "conditions": "250 g ai/ha, Flood, applied to paddy water, evaluated after 13 days", "in_short": "as §2"}, "[14]": {"tested_on": "barnyardgrass (Echinochloa crusgalli)", "assay": "Test B flooded paddy test, visual plant response rating 0-100", "conditions": "250 g ai/ha, Flood, applied to paddy water, evaluated after 13 days", "in_short": "as §2"}, "[15]": {"tested_on": "rice (Oryza sativa)", "assay": "Test B flooded paddy test, visual plant response rating 0-100", "conditions": "250 g ai/ha, Flood, applied to paddy water, evaluated after 13 days", "in_short": "as §2"}, "[16]": {"tested_on": "green foxtail (Setaria viridis)", "assay": "Test A postemergence application, visual injury rating 0-100", "in_short": "as §1"}, "[17]": {"tested_on": "corn (Zea mays)", "assay": "Test A postemergence application, visual injury rating 0-100", "in_short": "as §1"}, "[18]": {"tested_on": "galium (catchweed bedstraw, Galium aparine)", "assay": "Test A postemergence application, visual injury rating 0-100", "in_short": "as §1"}, "[19]": {"tested_on": "kochia (Bassia scoparia)", "assay": "Test A postemergence application, visual injury rating 0-100", "in_short": "as §1"}, "[20]": {"tested_on": "ragweed (common ragweed, Ambrosia artemisiifolia)", "assay": "Test A postemergence application, visual injury rating 0-100", "in_short": "as §1"}, "[21]": {"tested_on": "horseweed (Erigeron canadensis)", "assay": "Test A postemergence application, visual injury rating 0-100", "in_short": "as §1"}, "[22]": {"tested_on": "oat, wild (wild oat, Avena fatua)", "assay": "Test A postemergence application, visual injury rating 0-100", "in_short": "as §1"}, "[23]": {"tested_on": "blackgrass (Alopecurus myosuroides)", "assay": "Test A postemergence application, visual injury rating 0-100", "in_short": "as §1"}, "[24]": {"tested_on": "barnyardgrass (Echinochloa crus-galli)", "assay": "Test A postemergence application, visual injury rating 0-100", "in_short": "as §1"}, "[25]": {"tested_on": "palmer (palmer amaranth, palmer pigweed, Amaranthus palmeri)", "assay": "Test A postemergence application, visual injury rating 0-100", "in_short": "as §1"}, "[26]": {"tested_on": "wheat (Triticum aestivum)", "assay": "Test A postemergence application, visual injury rating 0-100", "in_short": "as §1"}, "[27]": {"tested_on": "ryegrass, Italian (italian ryegrass, Lolium multiflorum)", "assay": "Test A postemergence application, visual injury rating 0-100", "in_short": "as §1"}, "[28]": {"tested_on": "soybean (Glycine max)", "assay": "Test A postemergence application, visual injury rating 0-100", "in_short": "as §1"}, "[29]": {"conditions": "62 g ai/ha, 0 = no effect, 100 = complete control"}, "[30]": {"conditions": "62 g ai/ha, postemergence, 10 days, 0 = no effect, 100 = complete control"}, "[31]": {"conditions": "Postemergence, 16 g ai/ha, greenhouse 10 days, 0 no effect, 100 complete control"}}, "data": [{"smiles": "COC(=O)C1C=CC(NC(=O)C2(C)CN(c3cc(F)cc(F)c3)C(=O)O2)C1", "note": "(mixture of isomers) [Compound 161]", "values": [{"measurement": "Foxtail, Green plant response rating", "setting": "[1]; 16 g ai/ha, 0 to 100 scale", "result": 30}, {"measurement": "Foxtail, Green plant response rating (0-100)", "setting": "[1]; [29]", "result": 100}, {"measurement": "Corn plant response rating", "setting": "[2]; 16 g ai/ha, 0 to 100 scale", "result": 30}, {"measurement": "Corn plant response rating (0-100)", "setting": "[2]; [29]", "result": 80}, {"measurement": "Kochia plant response rating", "setting": "[3]; 16 g ai/ha, 0 to 100 scale", "result": 0}, {"measurement": "Kochia plant response rating (0-100)", "setting": "[3]; [29]", "result": 50}, {"measurement": "Ragweed plant response rating", "setting": "[4]; 16 g ai/ha, 0 to 100 scale", "result": 10}, {"measurement": "Ragweed plant response rating (0-100)", "setting": "[4]; [29]", "result": 50}, {"measurement": "Oat, Wild plant response rating", "setting": "[5]; 16 g ai/ha, 0 to 100 scale", "result": 30}, {"measurement": "Oat, Wild plant response rating (0-100)", "setting": "[5]; [29]", "result": 90}, {"measurement": "Blackgrass plant response rating", "setting": "[6]; 16 g ai/ha, 0 to 100 scale", "result": 70}, {"measurement": "Blackgrass plant response rating (0-100)", "setting": "[6]; [29]", "result": 90}, {"measurement": "Barnyardgrass plant response rating", "setting": "[7]; 16 g ai/ha, 0 to 100 scale", "result": 80}, {"measurement": "Barnyardgrass plant response rating (0-100)", "setting": "[7]; [29]", "result": 100}, {"measurement": "Pigweed, Palmer plant response rating", "setting": "[8]; 16 g ai/ha, 0 to 100 scale", "result": 90}, {"measurement": "Pigweed, Palmer plant response rating (0-100)", "setting": "[8]; [29]", "result": 100}, {"measurement": "Wheat plant response rating", "setting": "[9]; 16 g ai/ha, 0 to 100 scale", "result": 80}, {"measurement": "Wheat plant response rating (0-100)", "setting": "[9]; [29]", "result": 90}, {"measurement": "Ryegrass, Italian plant response rating", "setting": "[10]; 16 g ai/ha, 0 to 100 scale", "result": 90}, {"measurement": "Ryegrass, Italian plant response rating (0-100)", "setting": "[10]; [29]", "result": 90}, {"measurement": "Soybean plant response rating", "setting": "[11]; 16 g ai/ha, 0 to 100 scale", "result": 0}, {"measurement": "Soybean plant response rating (0-100)", "setting": "[11]; [29]", "result": 50}, {"measurement": "Plant response rating, Sedge, Umbrella (0 to 100 scale, 0 is no effect and 100 is complete control)", "setting": "[12]", "result": 95}, {"measurement": "Plant response rating, Ducksalad (0 to 100 scale, 0 is no effect and 100 is complete control)", "setting": "[13]", "result": 80}, {"measurement": "Plant response rating, Barnyardgrass (0 to 100 scale, 0 is no effect and 100 is complete control)", "setting": "[14]", "result": 60}, {"measurement": "Plant response rating, Rice (0 to 100 scale, 0 is no effect and 100 is complete control)", "setting": "[15]", "result": 85}, {"measurement": "Foxtail, Green plant response rating (0-100)", "setting": "[16]; [30]", "result": 90}, {"measurement": "Foxtail, Green plant response rating (0 to 100 scale)", "setting": "[16]; [31]", "result": 60}, {"measurement": "Corn plant response rating (0-100)", "setting": "[17]; [30]", "result": 100}, {"measurement": "Corn plant response rating (0 to 100 scale)", "setting": "[17]; [31]", "result": 100}, {"measurement": "Galium plant response rating (0-100)", "setting": "[18]; [30]", "result": 90}, {"measurement": "Galium plant response rating (0 to 100 scale)", "setting": "[18]; [31]", "result": 80}, {"measurement": "Kochia plant response rating (0-100)", "setting": "[19]; [30]", "result": 30}, {"measurement": "Kochia plant response rating (0 to 100 scale)", "setting": "[19]; [31]", "result": 0}, {"measurement": "Ragweed plant response rating (0-100)", "setting": "[20]; [30]", "result": 70}, {"measurement": "Ragweed plant response rating (0 to 100 scale)", "setting": "[20]; [31]", "result": 50}, {"measurement": "Horseweed plant response rating (0-100)", "setting": "[21]; [30]", "result": 70}, {"measurement": "Horseweed plant response rating (0 to 100 scale)", "setting": "[21]; [31]", "result": 60}, {"measurement": "Oat, Wild plant response rating (0-100)", "setting": "[22]; [30]", "result": 90}, {"measurement": "Oat, Wild plant response rating (0 to 100 scale)", "setting": "[22]; [31]", "result": 90}, {"measurement": "Blackgrass plant response rating (0-100)", "setting": "[23]; [30]", "result": 90}, {"measurement": "Blackgrass plant response rating (0 to 100 scale)", "setting": "[23]; [31]", "result": 90}, {"measurement": "Barnyardgrass plant response rating (0-100)", "setting": "[24]; [30]", "result": 100}, {"measurement": "Barnyardgrass plant response rating (0 to 100 scale)", "setting": "[24]; [31]", "result": 80}, {"measurement": "Pigweed, Palmer plant response rating (0-100)", "setting": "[25]; [30]", "result": 70}, {"measurement": "Pigweed, Palmer plant response rating (0 to 100 scale)", "setting": "[25]; [31]", "result": 40}, {"measurement": "Wheat plant response rating (0-100)", "setting": "[26]; [30]", "result": 90}, {"measurement": "Wheat plant response rating (0 to 100 scale)", "setting": "[26]; [31]", "result": 90}, {"measurement": "Ryegrass, Italian plant response rating (0-100)", "setting": "[27]; [30]", "result": 80}, {"measurement": "Ryegrass, Italian plant response rating (0 to 100 scale)", "setting": "[27]; [31]", "result": 70}, {"measurement": "Soybean plant response rating (0-100)", "setting": "[28]; [30]", "result": 70}, {"measurement": "Soybean plant response rating (0 to 100 scale)", "setting": "[28]; [31]", "result": 60}]}]}
